From patent publication US20260263357A1, “PHASE SHIFTING INTRAVITREAL TAMPONADE” (Avant Sciences, Inc., priority 2023, published 2026)
Read-outs that look alike come from different tables or passages of the source.

What was measured:
[1] = cited from earlier work
[2] = cited from earlier work; remark: listed apart in the source
[3] = Table 5; cited from earlier work
[4] = Experimental ultrasound absorbance (amplitude attenuation coefficient); assay type: physicochemical
Source text: In some embodiments, the compounds of Structure 1 are capable of absorbing ultrasonic wave energy. The capacity of a given chemical to convert applied ultrasound from vibrational energy into heat is termed its ultrasonic absorbance, which itself varies depending upon the initial temperature and the frequency of the applied ultrasound. Additionally, the native vitreous within biological tissues approximates that of water, which itself has an ultrasonic absorption profile; thus, there is a baseline transmission of acoustic energy through ocular tissues, and this characteristic is routinely leveraged when it comes to various forms of imaging and therapy (Southern, Australas J Ultrasound Med. 2009 February; 12 (1): 32-37). In some embodiments, a compound that can preferentially absorb ultrasound more readily than that of water has the capacity to disproportionately absorb applied ultrasonic energy versus that of vitreous within the vitreous cavity. As such absorption would lead to local increase in temperature, thus facilitate the phase shift to a gaseous state.
With reference to Table 3, a compound with a larger amplitude attenuation coefficient absorbs ultrasound more than a compound that has a lower amplitude attenuation coefficient. It is clear that each of the compounds of Structure 1 (as shown in Table 3) is orders of magnitude more likely to absorb ultrasonic energy than water/vitreous. […] Indeed, it is notable that water, the least absorptive compound shown, is not only clearly symmetric on both a rotational axis and the mirror plane, but also has some of the strongest hydrogen bond forces in all of chemistry, allowing it to “pack itself together” much more readily than the other compounds on the list.

[5] = tested on: New Zealand white rabbits; test: Intraocular pressure measurements after intravitreal injection; assay type: in vivo, rabbit
Source text: (§1) Additionally, to address concerns about biological toxicity of these compounds, intraocular pressure measurements and both scotopic a-wave, b-wave, and photopic b-wave ERGs were done on all 6 rabbits in the study, without any statistically notable adverse signals (FIG. 2-5).
Additionally, to address concerns about biological toxicity of these compounds, intraocular pressure measurements were done on all 4 rabbits in the study, without any statistically notable adverse signals.

[6] = tested on: New Zealand white rabbits; test: Fundus imaging of tamponade bubble after injection into rabbit vitreous cavity (phase shift and removal); assay type: in vivo; conditions: 8 microliters injected into rabbit vitreous cavity
Protocol: The biological safety of a compound of Structure 1 is tested within an animal model. In particular, 2,2,2-Trifluoroethyl 1,1,2,2-tetrafluoroethyl ether was tested within a New Zealand white rabbits, an animal model in line with previous retinal tamponade studies (Santos et al., Retina, 33 (1): p 120-127 (1991)).
(§2) FIG. 1A includes a set of control retinal fundus images (near-infrared images IR and corresponding color images MC) for which balanced salt solution BSS (effectively water) was injected into a rabbit vitreous cavity. […] In other words, 2,2,2-Trifluoroethyl 1,1,2,2-tetrafluoroethyl ether was empirically determined to successfully phase shift under biological conditions at around 1 week post placement, and then subsequently carried out of the body over the next 2 months. […]
as §2, with “6A” for “1A”, “1,1,2,3,3,3-Hexafluoropropyl difluoromethyl” for “2,2,2-Trifluoroethyl 1,1,2,2-tetrafluoroethyl”, “1-3 days” for “1 week”, “subsequently fully” for “subsequently”, “by Day 8.” for “over the next 2 months.”

[7] = tested on: New Zealand white rabbits; test: Scotopic a-wave, b-wave and photopic b-wave ERGs after intravitreal injection; assay type: in vivo, rabbit; conditions: baseline and 2 months
Source text: as §1

[8] = Table 2, selected fluorinated ethers
[9] = Table 1, selected fluorinated alkanes
[10] = 4 rabbits, up to about 1 month after injection, FIG. 7
[11] = 6 rabbits, up to about two months after injection, FIG. 2

SMILES	Flammable? [1, 8]	Boiling Point [2, 8] [°C]	Density [3] [g/mL]	Boiling Point ([2]; Table 5) [°C]	Flammable? [1, 9]	further results
FCOCF [Bis(fluoromethyl) ether]	YES	34				
COC(F)(F)C(F)F [tetrafluoroethyl methyl ether]	YES	37				
COC(F)(F)C(F)(F)C(F)(F)F [Heptafluoropropyl methyl ether]	No	34				
FC(F)C(F)(F)COCC(F)(F)C(F)F [1,1,2,2-Tetrafluoro-3-(2,2,3,3-tetrafluoropropoxy)propane, reference compound]			1.627	35		
FC(F)OCC(F)(F)C(F)(F)F [Difluoromethyl 2,2,3,3,3-pentafluoropropyl ether]	No	46	1.46	46		Amplitude Attenuation Coefficient [4]: 0.57 db/cm-MHz
FC(F)C(F)(F)C(F)F [1,1,2,2,3,3-Hexafluoropropane]					No	Boiling Point [2, 9]: 5 °C
O [Water, reference compound]						Amplitude Attenuation Coefficient [4]: 0.002 db/cm-MHz
FCCC(F)F [1,1,3-Trifluoropropane]					YES	
CCOC(F)(F)C(F)(F)F [Ethyl pentafluoroethyl ether]	YES	30				
FCCC(F)(F)F [1,1,1,3-Tetrafluoropropane]					YES	
FC(F)OC(F)(F)C(F)C(F)(F)F (centres unmarked) [1,1,2,3,3,3-Hexafluoropropyl difluoromethyl ether]	No	47	1.5	47		Intraocular pressure compared to control (Balanced Salt Solution) [5, 10]: not significantly different; Intraocular pressure relative to normal physiologic range [5, 10]: nor were their intraocular pressures outside of normal physiologic range throughout the study; Day by which agent is fully carried out of the body ([6]; fundus images to D30): ≤ 8 days; Amplitude Attenuation Coefficient [4]: 3.35 db/cm-MHz
CC(F)(F)OCC(F)(F)F [1,1-Difluoroethyl 2,2,2-trifluoroethyl ether]	YES					
FC(C(F)(F)F)C(F)(F)OCC(F)(F)C(F)(F)C(F)(F)F (centres unmarked) [1,1,1,2,2,3,3-Heptafluoro-4-(1,1,2,3,3,3-hexafluoropropoxy)butane, reference compound]			1.63	102		
COC(F)C(F)(F)F (centres unmarked) [1,2,2,2-Tetrafluoroethyl methyl ether]	YES					
FC(OC(F)(F)C(F)(F)C(F)(F)F)C(F)(F)F (centres unmarked) [Heptafluoropropyl 1,2,2,2-tetrafluoroethyl ether]	No	40	1.538	40		Amplitude Attenuation Coefficient [4]: 3.58 db/cm-MHz
FC(F)C(F)(F)C(F)(F)F [1,1,1,2,2,3,3-Heptafluoropropane]					No	Boiling Point [2, 9]: −16 °C
FC(F)C(F)(F)OCC(F)(F)F [2,2,2-Trifluoroethyl 1,1,2,2-tetrafluoroethyl ether]	No	56	1.487	56.7		Intraocular pressure compared to control (Balanced Salt Solution) [5, 11]: not significantly different; Intraocular pressure relative to normal physiologic range [5, 11]: nor were their intraocular pressures outside of normal physiologic range throughout the study; Time over which agent is carried out of the body after phase shift ([6]; fundus images to D56): ~2 months; Scotopic a-wave ERG amplitude (rod and cone cells, dark-adapted) vs control (Balanced Salt Solution) ([7]; FIG. 3): no significant difference; Scotopic b-wave ERG amplitude (bipolar cells, dark-adapted) vs control (Balanced Salt Solution) ([7]; FIG. 4): no significant difference; Photopic b-wave ERG amplitude (bipolar cells, light-adapted) vs control (Balanced Salt Solution) ([7]; FIG. 5): no significant difference; Amplitude Attenuation Coefficient [4]: 2.65 db/cm-MHz
FC(F)(F)C(F)(F)C(F)(F)F [Perfluoropropane]					No	
FCC(F)(F)C(F)F [1,1,2,2,3-Pentafluropropane]					YES	Boiling Point [2, 9]: 26 °C
